These results are taken from ChEMBL document CHEMBL1154409, “Contribution of the CmeABC efflux pump to macrolide and tetracycline resistance in Campylobacter jejuni” (2007).

As a reminder, the MIC is the lowest concentration that inhibits growth of the organism.

Converted amounts (≈) assume the structure as drawn. Peptide text beside a SMILES is read from it. * marks the point of attachment. βNA = c1ccc2cc(N*)ccc2c1 A value given as a limit tells only on which side of the number the result lay.

Test [1] has as its system Campylobacter jejuni. In words: Inactivation of CmeABC efflux pump in Campylobacter jejuni 25-19 assessed as change in erythromycin MIC by agar dilution method.
For test [2], the target named is T1, CmeA (Campylobacter jejuni) (UniProt Q8RTE5).
T1 sequence (whole entry): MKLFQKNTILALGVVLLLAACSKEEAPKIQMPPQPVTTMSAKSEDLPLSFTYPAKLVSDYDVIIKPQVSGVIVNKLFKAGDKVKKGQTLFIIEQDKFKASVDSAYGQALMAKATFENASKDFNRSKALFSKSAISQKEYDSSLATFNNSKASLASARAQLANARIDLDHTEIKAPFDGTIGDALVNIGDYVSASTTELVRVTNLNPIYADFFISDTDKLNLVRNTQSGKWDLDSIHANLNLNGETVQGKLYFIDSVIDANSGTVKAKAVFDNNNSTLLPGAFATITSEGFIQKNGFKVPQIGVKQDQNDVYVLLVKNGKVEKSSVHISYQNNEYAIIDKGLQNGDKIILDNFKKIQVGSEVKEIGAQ
In words: Inactivation of CmeABC efflux pump in Campylobacter jejuni 25-19 assessed as change in clarithromycin MIC by agar dilution method. On the technique in general: In agar dilution, organisms are placed on agar that contains the substance at set levels.

Test [3] deals with Campylobacter jejuni. In words: Ratio of MIC for Campylobacter jejuni 001B-40 carrying A2075G mutation in 23S rRNA to MIC for Campylobacter jejuni 001B-40 cmeB::kanamycin-resistant mutant. The class given is functional.
Test [4] deals with Campylobacter jejuni. In words: Antibacterial activity against Campylobacter jejuni 001B-22 carrying A2075G mutation in 23S rRNA by agar dilution method. The test is classed as functional.
The test system of test [5] is Campylobacter jejuni. As to the kind of experiment: Antibacterial activity against Campylobacter jejuni 001B-40 cmeB::kanamycin-resistant mutant by agar dilution method. The test is classed as functional.
Test [6] relates to Campylobacter jejuni. In words: Antibacterial activity against Campylobacter jejuni 001B-40 carrying A2075G mutation in 23S rRNA by agar dilution method. The class given is functional.
Test [7] deals with Campylobacter jejuni. In words: Antibacterial activity against Campylobacter jejuni UA709 cmeB::kanamycin-resistant mutant by agar dilution method. The test is classed as functional.
Test [8] has as its system Campylobacter jejuni. As to the kind of experiment: Ratio of MIC for Campylobacter jejuni 001B-22 carrying A2075G mutation in 23S rRNA to MIC for Campylobacter jejuni 001B-22 cmeB::kanamycin-resistant mutant. The class given is functional.
The subject of test [9] is Campylobacter jejuni. In words: Antibacterial activity against Campylobacter jejuni UA709 carrying A2074C mutation in 23S rRNA by agar dilution method. The test is classed as functional.
In test [10] the test system is Campylobacter jejuni. In words: Antibacterial activity against Campylobacter jejuni 001B-22 cmeB::kanamycin-resistant mutant by agar dilution method. The class given is functional.
Test [11] deals with Campylobacter jejuni. In words: Antibacterial activity against Campylobacter jejuni 25-45 by agar dilution method. The test is classed as functional.
Test [12] relates to Campylobacter jejuni. As to the kind of experiment: Antibacterial activity against Campylobacter jejuni 23-51 cme:: Kanamycin-resistant mutant assessed by agar dilution method. The class given is functional.
The subject of test [13] is Campylobacter jejuni. In words: Antibacterial activity against Campylobacter jejuni 25-19 by agar dilution method. The class given is functional.
Test [14] concerns Campylobacter jejuni. As to the kind of experiment: Antibacterial activity against Campylobacter jejuni 15-21 by […]. The class given is functional.
Test [15] deals with Campylobacter jejuni. As to the kind of experiment: Antibacterial activity against Campylobacter jejuni 15-21 cmeB:: Kanamycin-resistant mutant by agar dilution method. The test is classed as functional.
Test [16] deals with Campylobacter jejuni. In words: Antibacterial activity against Campylobacter jejuni 25-19 cmeB:: Kanamycin-resistant mutant by agar dilution method. The class given is functional.
In test [17] the test system is Campylobacter jejuni. As to the kind of experiment: Antibacterial activity against Campylobacter jejuni 81-176 carrying tet(O)+ gene by agar dilution method. The test is classed as functional.
The test system of test [18] is Escherichia coli. In words: Antibacterial activity against Escherichia coli EW1b containing pDOB47. The class given is functional.
For test [19], the system named is Escherichia coli. In words: Antibacterial activity against wild type Escherichia coli DH5alpha by agar dilution assay. The class given is functional.
Test [20] has as its system Campylobacter jejuni. In words: Antibacterial activity against Campylobacter jejuni 23-51 assessed as inhibition of CmeABC efflux pump by agar dilution method. The class given is functional.
Test [21] deals with Campylobacter jejuni. In words: Antibacterial activity against Campylobacter jejuni 25-45 cmeB:: Kanamycin-resistant mutant by agar dilution method. The test is classed as functional.
The subject of test [22] is Campylobacter jejuni. As to the kind of experiment: Antibacterial activity against Campylobacter jejuni 81-176 cmeB: kanamycin-resistant mutant carrying tet(O)+ gene. The test is classed as functional.

In the case of `N=C(N)NCCC[C@H](NC(=O)[C@@H](N)Cc1ccccc1)C(=O)Nc1ccc2ccccc2c1` (H-Phe-Arg-βNA), the fold change (FC) in the test with Campylobacter jejuni [1] is 3; in test [2], 2.

In the case of `CC[C@H]1OC(=O)[C@H](C)[C@@H](O[C@H]2C[C@@](C)(OC)[C@@H](O)[C@H](C)O2)[C@H](C)[C@@H](O[C@@H]2O[C@H](C)C[C@H](N(C)C)[C@H]2O)[C@](C)(OC)C[C@@H](C)C(=O)[C@H](C)[C@@H](O)[C@]1(C)O` [CLARITHROMYCIN], the “fold change (FC)” value was above 32 with Campylobacter jejuni [3], 2 in the test on Campylobacter jejuni [1] and 16 with Campylobacter jejuni [8]. The MIC against Campylobacter jejuni [4] was found to be 64 µg/mL (≈ 85.6 µM); in the test on Campylobacter jejuni [5], 8 µg/mL (≈ 10.7 µM); with Campylobacter jejuni [6], 265 µg/mL (≈ 354 µM); against Campylobacter jejuni [7] it was 128 µg/mL (≈ 171 µM); against Campylobacter jejuni [9] it was 128 µg/mL (≈ 171 µM); in the test with Campylobacter jejuni [10], 4 µg/mL (≈ 5.35 µM).

Take `CC[C@H]1OC(=O)[C@H](C)[C@@H](O[C@H]2C[C@@](C)(OC)[C@@H](O)[C@H](C)O2)[C@H](C)[C@@H](O[C@@H]2O[C@H](C)C[C@H](N(C)C)[C@H]2O)[C@](C)(O)C[C@@H](C)C(=O)[C@H](C)[C@@H](O)[C@]1(C)O` [ERYTHROMYCIN]: the minimum inhibitory concentration (MIC) was 256 µg/mL (≈ 349 µM) in the test with Campylobacter jejuni [4]; 8 µg/mL (≈ 10.9 µM) in the test with Campylobacter jejuni [5]; above 1020 µg/mL against Campylobacter jejuni [6]; 1020 µg/mL (≈ 1400 µM) in the test on Campylobacter jejuni [7]; 1020 µg/mL (≈ 1400 µM) in the test on Campylobacter jejuni [9]; 4 µg/mL (≈ 5.45 µM) in the test on Campylobacter jejuni [10]. In addition, the “fold change (FC)” value in the test with Campylobacter jejuni [8] was 64.

In the case of `CN(C)[C@@H]1C(O)=C(C(N)=O)C(=O)[C@@]2(O)C(O)=C3C(=O)c4c(O)cccc4[C@@](C)(O)[C@H]3C[C@@H]12` [TETRACYCLINE], the MIC turned out to be 256 µg/mL (≈ 576 µM) with Campylobacter jejuni [11]; 8 µg/mL (≈ 18 µM) in the test with Campylobacter jejuni [12]; 64 µg/mL (≈ 144 µM) against Campylobacter jejuni [13]; 128 µg/mL (≈ 288 µM) against Campylobacter jejuni [14]; 4 µg/mL (≈ 9 µM) in the test on Campylobacter jejuni [15]; 4 µg/mL (≈ 9 µM) against Campylobacter jejuni [16]. Also, the minimum inhibitory concentration (MIC) came out at 32 µg/mL (≈ 72 µM) against Campylobacter jejuni [17]; 16 µg/mL (≈ 36 µM) in the test on Escherichia coli [18]; 64 µg/mL (≈ 144 µM) in the test on Escherichia coli [19]; 512 µg/mL (≈ 1150 µM) in the test with Campylobacter jejuni [20]; 8 µg/mL (≈ 18 µM) against Campylobacter jejuni [21]; 2 µg/mL (≈ 4.5 µM) with Campylobacter jejuni [22].
